Results taken from patent publication US11878975B2, “Substituted indole compounds useful as TLR inhibitors” (BRISTOL-MYERS SQUIBB COMPANY, priority 2017, dated 2024).

Experiments:
Type in all cases: cell-based
human TLR7 = molecular target: T1, human TLR7 (Homo sapiens, UniProt Q9NYK1); assay: TLR7 inhibition reporter assay (HEK-Blue cells, SEAP reporter, gardiquimod stimulation); conditions: HEK-Blue cells overexpressing human TLR7, SEAP reporter, gardiquimod 7.5 μM
T1 construct: host or cells: HEK-Blue cells
T1 sequence (Q9NYK1 27-1049): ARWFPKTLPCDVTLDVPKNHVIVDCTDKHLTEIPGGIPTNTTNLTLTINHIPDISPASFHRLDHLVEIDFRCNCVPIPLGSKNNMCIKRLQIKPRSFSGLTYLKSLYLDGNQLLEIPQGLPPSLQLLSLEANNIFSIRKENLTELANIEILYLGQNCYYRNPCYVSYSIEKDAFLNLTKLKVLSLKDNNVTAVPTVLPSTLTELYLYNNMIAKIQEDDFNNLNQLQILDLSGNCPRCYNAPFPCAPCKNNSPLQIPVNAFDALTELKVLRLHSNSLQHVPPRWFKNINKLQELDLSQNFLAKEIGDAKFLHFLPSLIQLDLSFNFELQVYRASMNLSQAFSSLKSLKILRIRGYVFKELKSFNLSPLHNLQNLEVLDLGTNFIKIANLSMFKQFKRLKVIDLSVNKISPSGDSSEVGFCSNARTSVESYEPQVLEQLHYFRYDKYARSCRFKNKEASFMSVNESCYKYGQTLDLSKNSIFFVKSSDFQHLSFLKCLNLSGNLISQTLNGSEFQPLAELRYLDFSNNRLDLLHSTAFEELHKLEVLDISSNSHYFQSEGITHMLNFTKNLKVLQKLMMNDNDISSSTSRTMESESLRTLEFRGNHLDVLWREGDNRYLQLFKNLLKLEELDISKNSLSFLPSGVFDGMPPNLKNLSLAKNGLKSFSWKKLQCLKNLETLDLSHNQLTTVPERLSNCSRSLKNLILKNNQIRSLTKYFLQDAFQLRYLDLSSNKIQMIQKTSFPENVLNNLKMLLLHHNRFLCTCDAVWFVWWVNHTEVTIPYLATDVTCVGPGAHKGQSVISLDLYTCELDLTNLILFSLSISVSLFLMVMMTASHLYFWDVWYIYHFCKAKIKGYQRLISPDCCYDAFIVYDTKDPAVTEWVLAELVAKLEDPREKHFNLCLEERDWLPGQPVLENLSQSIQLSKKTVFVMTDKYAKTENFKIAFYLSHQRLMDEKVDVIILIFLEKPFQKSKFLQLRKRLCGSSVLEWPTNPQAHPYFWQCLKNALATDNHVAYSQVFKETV
How it was run: (§1)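 Percent inhibition is derived from SEAP signal, scaled between agonist-plus-DMSO wells and wells given a known inhibitor. Test compounds (0.05 nM–50 μM) are pre-incubated 30 min at room temperature before agonist addition (TLR7: 7.5 μM gardiquimod; TLR8: 15.9 μM R848; TLR9: 5 nM ODN2006) and 22 h culture at 37 °C.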

human TLR8 = molecular target: T2, human TLR8 (Homo sapiens, UniProt Q9NR97); assay: TLR8 inhibition reporter assay (HEK-Blue cells, SEAP reporter, R848 stimulation); conditions: HEK-Blue cells overexpressing human TLR8, SEAP reporter, R848 15.9 μM
T2 construct: host or cells: HEK-Blue cells
T2 sequence (Q9NR97 27-1041): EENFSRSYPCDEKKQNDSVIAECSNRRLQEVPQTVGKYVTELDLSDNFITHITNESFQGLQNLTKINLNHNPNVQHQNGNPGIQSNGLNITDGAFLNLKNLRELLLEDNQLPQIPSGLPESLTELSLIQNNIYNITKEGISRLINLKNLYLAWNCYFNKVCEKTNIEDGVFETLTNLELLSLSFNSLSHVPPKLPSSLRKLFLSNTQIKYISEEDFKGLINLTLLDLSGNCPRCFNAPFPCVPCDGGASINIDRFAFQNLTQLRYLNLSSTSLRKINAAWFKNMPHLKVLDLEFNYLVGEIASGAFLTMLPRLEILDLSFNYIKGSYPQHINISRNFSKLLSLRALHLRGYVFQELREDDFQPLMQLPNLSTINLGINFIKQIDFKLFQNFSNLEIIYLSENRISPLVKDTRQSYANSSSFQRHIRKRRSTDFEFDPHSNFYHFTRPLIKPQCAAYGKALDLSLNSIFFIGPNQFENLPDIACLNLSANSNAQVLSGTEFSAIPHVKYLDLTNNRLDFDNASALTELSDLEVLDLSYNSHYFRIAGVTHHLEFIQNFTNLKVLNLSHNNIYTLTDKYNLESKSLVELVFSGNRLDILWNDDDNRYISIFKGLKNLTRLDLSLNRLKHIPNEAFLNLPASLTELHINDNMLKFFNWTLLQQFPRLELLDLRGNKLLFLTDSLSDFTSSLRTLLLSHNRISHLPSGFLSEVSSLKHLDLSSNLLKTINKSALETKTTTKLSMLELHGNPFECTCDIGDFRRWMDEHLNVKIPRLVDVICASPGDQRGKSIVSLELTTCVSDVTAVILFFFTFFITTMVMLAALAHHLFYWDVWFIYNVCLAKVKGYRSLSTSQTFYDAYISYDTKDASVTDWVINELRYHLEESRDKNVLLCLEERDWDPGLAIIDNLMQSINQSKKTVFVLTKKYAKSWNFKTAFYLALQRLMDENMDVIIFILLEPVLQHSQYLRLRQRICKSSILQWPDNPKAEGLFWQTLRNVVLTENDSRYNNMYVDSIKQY
How it was run: as §1

human TLR9 = molecular target: T3, human TLR9 (Homo sapiens, UniProt Q9NR96); assay: TLR9 inhibition reporter assay (HEK-Blue cells, SEAP reporter, ODN2006 stimulation); conditions: HEK-Blue cells overexpressing human TLR9, SEAP reporter, ODN2006 5 nM
T3 construct: host or cells: HEK-Blue cells
T3 sequence (Q9NR96 26-1032): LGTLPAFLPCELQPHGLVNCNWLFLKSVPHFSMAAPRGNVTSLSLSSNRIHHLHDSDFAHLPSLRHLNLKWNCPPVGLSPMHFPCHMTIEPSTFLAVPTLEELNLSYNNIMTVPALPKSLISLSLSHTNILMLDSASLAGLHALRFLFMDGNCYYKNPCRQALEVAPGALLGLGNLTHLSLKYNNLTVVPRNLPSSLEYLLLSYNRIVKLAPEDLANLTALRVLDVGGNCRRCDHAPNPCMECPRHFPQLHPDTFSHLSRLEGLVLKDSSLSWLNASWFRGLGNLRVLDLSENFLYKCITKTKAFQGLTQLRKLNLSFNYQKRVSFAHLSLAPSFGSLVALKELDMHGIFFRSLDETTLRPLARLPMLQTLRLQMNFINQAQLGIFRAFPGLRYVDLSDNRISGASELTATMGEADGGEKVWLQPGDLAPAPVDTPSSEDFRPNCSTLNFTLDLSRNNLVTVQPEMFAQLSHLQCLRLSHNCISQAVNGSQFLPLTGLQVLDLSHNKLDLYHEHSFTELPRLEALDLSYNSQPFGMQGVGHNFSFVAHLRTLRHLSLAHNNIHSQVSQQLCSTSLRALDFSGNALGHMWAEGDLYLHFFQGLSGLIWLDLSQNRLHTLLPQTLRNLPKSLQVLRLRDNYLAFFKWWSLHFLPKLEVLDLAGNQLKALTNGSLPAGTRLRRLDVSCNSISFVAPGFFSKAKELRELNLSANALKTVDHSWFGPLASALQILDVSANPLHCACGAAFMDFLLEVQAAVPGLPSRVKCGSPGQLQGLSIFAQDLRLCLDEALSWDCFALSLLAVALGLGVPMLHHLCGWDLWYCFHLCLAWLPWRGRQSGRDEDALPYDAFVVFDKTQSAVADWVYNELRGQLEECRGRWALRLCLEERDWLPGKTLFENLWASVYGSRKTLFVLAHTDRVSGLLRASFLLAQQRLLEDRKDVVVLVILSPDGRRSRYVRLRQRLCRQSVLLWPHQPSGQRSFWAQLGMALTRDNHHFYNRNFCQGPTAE
How it was run: as §1

IC50 (human TLR7) [nM] | IC50 (human TLR8) [nM] | IC50 (human TLR9) [nM] | SMILES
0.7 | 5.6 | 14200 | COc1cc(-c2[nH]c3ccc(C4CCC(NC(=O)CNCC(C)(C)O)CC4)cc3c2C(C)C)cn2ncnc12 (stereo not drawn) [Example 140]
2 | 18 | 4320 | COc1cc(-c2[nH]c3ccc(C4CCC(NC(=O)CN5CCOCC5)CC4)cc3c2C(C)C)cn2ncnc12 (stereo not drawn) [Example 141]
2 | 14 | 4410 | COc1cc(-c2[nH]c3ccc(C4CCC(NC(=O)CN5CCOCC5)CC4)cc3c2C(C)C)cn2ncnc12 (stereo not drawn) [Example 142]
2 | 8 | 27700 | COc1cc(-c2[nH]c3ccc(C4CCC(NC(=O)CN(C)C5CC5)CC4)cc3c2C(C)C)cn2ncnc12 (stereo not drawn) [Example 143]
3 | 9.7 | 33300 | COc1cc(-c2[nH]c3ccc(C4CCC(NC(=O)CN5CCS(=O)(=O)CC5)CC4)cc3c2C(C)C)cn2ncnc12 (stereo not drawn) [Example 144]
0.43 | 5.1 | 1490 | COc1cc(-c2[nH]c3ccc(C4CCC(N(C)C(=O)CN(C)C)CC4)cc3c2C(C)C)cn2ncnc12 (stereo not drawn) [Example 147, 2-(dimethylamino)-N-(4-(3-isopropyl-2-(8-methoxy-[1,2,4]triazolo[1,5-a]pyridin-6-yl)-1H-indol-5-yl)cyclohexyl)-N-methylacetamide]
1 | 7.7 | 2440 | Cc1cc(-c2[nH]c3ccc(C4CCC(N(C)C(=O)CN(C)C)CC4)cc3c2C(C)C)cn2ncnc12 (stereo not drawn) [Example 148]
0.43 | 4.6 | 2300 | Cc1cc(-c2[nH]c3ccc(C4CCC(N(C)C(=O)CN(C)C)CC4)cc3c2C(C)C)cn2ncnc12 (stereo not drawn) [Example 149]
0.35 | 0.44 | 1680 | COc1cc(-c2[nH]c3ccc(C4CCC(N(C)CCS(C)(=O)=O)CC4)cc3c2C(C)C)cn2ncnc12 (stereo not drawn) [Example 150, 4-(3-isopropyl-2-(8-methoxy-[1,2,4]triazolo[1,5-a]pyridin-6-yl)-1H-indol-5-yl)-N-methyl-N-(2-(methylsulfonyl)ethyl)cyclohexanamine]
0.62 | 0.37 | 3340 | Cc1c(-c2[nH]c3ccc(C4CCC(N(C)CCS(C)(=O)=O)CC4)cc3c2C(C)C)cn2ncnc2c1C (stereo not drawn) [Example 151]
4 | 12 | 5680 | COc1cc(-c2[nH]c3ccc(C4CCC(C)(NC(=O)CN(C)C)CC4)cc3c2C(C)C)cn2ncnc12 (stereo not drawn) [Example 154, 2-(dimethylamino)-N-(4-(3-isopropyl-2-(8-methoxy-[1,2,4]triazolo[1,5-a]pyridin-6-yl)-1H-indol-5-yl)-1-methylcyclohexyl)acetamide]
6 | 24 | 3700 | CNCC(=O)NC1(C)CCC(c2ccc3[nH]c(-c4cc(OC)c5ncnn5c4)c(C(C)C)c3c2)CC1 (stereo not drawn) [Example 155, N-(4-(3-isopropyl-2-(8-methoxy-[1,2,4]triazolo[1,5-a]pyridin-6-yl)-1H-indol-5-yl)-1-methylcyclohexyl)-2-(methylamino)acetamide]
0.47 | 3.2 | 2290 | Cc1cc(-c2[nH]c3ccc(C4CCC(C(=O)NC5CCN(C(C)C)CC5)CC4)cc3c2C(C)C)cn2ncnc12 (stereo not drawn) [Example 158]
3 | 59 | 4800 | Cc1cc(-c2[nH]c3ccc(C4CCC(C(=O)N5CCOCC5)CC4)cc3c2C(C)C)cn2ncnc12 (stereo not drawn) [Example 161]
1 | 7.1 | 1920 | COc1cc(-c2[nH]c3ccc(C4CCC(NCC(=O)NC5COC5)CC4)cc3c2C(C)C)cn2ncnc12 (stereo not drawn) [Example 164]
0.31 | 1.7 | 1990 | COc1cc(-c2[nH]c3ccc(C4CCC(NCC(=O)NC5COC5)CC4)cc3c2C(C)C)cn2ncnc12 (stereo not drawn) [Example 165]
4 | 18 | 16900 | CNC(=O)CNC1CCC(c2ccc3[nH]c(-c4cc(OC)c5ncnn5c4)c(C(C)C)c3c2)CC1 (stereo not drawn) [Example 166]
0.22 | 0.62 | 1300 | CNC(=O)CNC1CCC(c2ccc3[nH]c(-c4cc(OC)c5ncnn5c4)c(C(C)C)c3c2)CC1 (stereo not drawn) [Example 167]
15 | 265 | 34400 | COC1CCC(c2ccc3[nH]c(-c4cc(C)c5ncnn5c4)c(C(C)C)c3c2)CC1 (stereo not drawn) [Example 168, 6-(3-isopropyl-5-(4-methoxycyclohexyl)-1H-indol-2-yl)-8-methyl-[1,2,4]triazolo[1,5-a]pyridine]
46 | 56 | > 50000 | Cc1cc(-c2[nH]c3ccc(C4CCC(O)CC4)cc3c2C(C)C)ccn1 (stereo not drawn) [Example 173]
164 | 518 | > 50000 | Cc1cc(-c2[nH]c3ccc(C4CCC(O)CC4)cc3c2C(C)C)ccn1 (stereo not drawn) [Example 174]
